The target in data set [1] is T1, hOCTN2 (Homo sapiens, UniProt O76082).
T1 sequence (O76082 1-557): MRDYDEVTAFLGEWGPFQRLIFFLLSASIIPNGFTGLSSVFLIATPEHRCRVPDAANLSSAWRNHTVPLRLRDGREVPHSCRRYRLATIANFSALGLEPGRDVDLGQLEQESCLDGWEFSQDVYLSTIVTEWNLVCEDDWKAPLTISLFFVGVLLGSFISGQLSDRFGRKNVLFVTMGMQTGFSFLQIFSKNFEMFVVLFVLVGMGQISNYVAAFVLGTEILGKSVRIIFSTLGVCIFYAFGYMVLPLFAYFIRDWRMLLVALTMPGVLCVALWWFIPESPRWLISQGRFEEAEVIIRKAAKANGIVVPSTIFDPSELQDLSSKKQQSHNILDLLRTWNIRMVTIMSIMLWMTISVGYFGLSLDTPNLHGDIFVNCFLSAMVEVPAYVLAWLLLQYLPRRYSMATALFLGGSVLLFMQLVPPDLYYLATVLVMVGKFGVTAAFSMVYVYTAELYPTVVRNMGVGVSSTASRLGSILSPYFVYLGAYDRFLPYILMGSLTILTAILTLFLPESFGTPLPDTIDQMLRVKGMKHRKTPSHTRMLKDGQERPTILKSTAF
In words: hOCTN2 direct uptake assay (LC-MS-MS, CHO-TREx-hOCTN2 cells). The class given is cell-based. Also on record: expressed in transfected cells; host or cells: CHO-TREx cells (CHO-TREx-OCTN2 inducible cell line). Particulars: CHO-TREx-hOCTN2 cells induced to express hOCTN2, specific uptake. How it is done: (§1) A modified direct uptake assay was developed to determine the ability of test compounds to be transported into CHO-TREx cells induced to over-express hOCTN2. Four concentrations (bracketing the affinity as measured by competition assays) per compound were routinely tested. Non-specific uptake was determined by measuring the uptake into cells not induced to express the transporter (“no tet”).
(§2) The direct uptake assays were prepared as follows: Compounds were prepared for assay by diluting a 100 mM stock concentration (in DMSO or water, depending on compound solubility) to the appropriate working concentration. Typically, four concentrations bracketing the IC50 were tested. The highest test concentration for each compound was made in an Eppendorf tube and diluted into HBSS. The samples were robustly vortexed and centrifuged for 10 minutes at 13,200 rpm to spin down any precipitate. The supernatant from these samples (˜150 μl/well) was carefully removed and placed into six wells of row A (cmpd 1: A1-6; cmpd 2: A7-12) or row E (cmpd 3: E1-6; cmpd 4: E7-12) of a 96-well polypropylene “compound” plate. Three additional 2-fold dilutions were made in the subsequent rows (B-D or […]) in HBSS. […]

Data set [2] deals with T1, hOCTN2. Put plainly: Oocyte uptake assay, oocytes injected with OCTN2 cRNA. Particulars: Xenopus oocytes. Format: cell-based. Also on record: expressed in transfected cells; host or cells: Xenopus oocytes injected with OCTN2 cRNA.
For data set [3], the target named is T1, hOCTN2. In words: hOCTN2 competition uptake assay (3H-carnitine uptake into CHO-TREx-hOCTN2 cells). Also on record: expressed in transfected cells; host or cells: CHO-TREx cells (CHO-TREx-OCTN2 inducible cell line). Format: cell-based. How it is done: A modified competition uptake assay was developed to determine the ability of a test compound(s) to inhibit the uptake of radiolabeled substrates into CHO-TREx-hOCTN2 cells induced to over-express hOCTN2. The results are stated as affinities (IC50).
The competition uptake assay was prepared as follows: Compounds were prepared for assay by diluting a 100 mM stock concentration (in DMSO) to the appropriate working concentration. Typically, seven-point dose response curves were prepared starting at a final assay concentration of 1 mM and carrying out three-fold dilutions. […]
Scintillation fluid (200 μl) (Optiphase Supermix (Perkin Elmer) was added to each well, and the plate was covered with a 96-well adhesive plate cover and placed on a shaker for 10 minutes. The plates were counted on a 96-well plate scintillation counter for 60 sec/well. The data were analyzed using a sigmoidal dose response curve-fitting program (Prism, GraphPad, Inc, San Diego, Calif.; equation: one-site competition).
FIG. 7 depicts the results of a competition experiment using CHO-TREx-OCTN2 cells. ^3H-carnitine was used as the substrate and unlabeled carnitine was used as the competitor. […] Non-specific uptake was determined by measuring the uptake into cells not induced to express the transporter (“no tet”). […]

A further data set has as its target T2, PgP (Homo sapiens, UniProt P08183).
T2 construct: expressed in transfected cells; host or cells: MDCK cells
In words: Transwell monolayer efflux assay, MDCK cells with TREx-PgP. The class given is cell-based. How it is done:
Transwell monolayer efflux assays can be performed by transfecting MDCK cells with the tetracycline-inducible TREx-PgP expression vector. The cells optionally can be transfected with a nucleic acid encoding the transporter of interest. The transfected cells are seeded on polycarbonate filter membranes in transwell dishes and grown for 3-5 days, yielding a polarized monolayer with tight junctions between cells.

Substrate in data set [4]: C[N+](C)(C)CC(O)CC(=O)[O-]
Put plainly: hOCTN2 direct uptake assay (LC-MS-MS, CHO-TREx-hOCTN2 cells). The class given is cell-based, human. Conditions: other: CHO-TREx-hOCTN2 cells induced to express hOCTN2, specific uptake. How it is done: as §1, §2

Setting [5] is: 2.5 nM 3H-vinblastine, in the presence of 250 μM verapamil.

T2 sequence (P08183 whole entry): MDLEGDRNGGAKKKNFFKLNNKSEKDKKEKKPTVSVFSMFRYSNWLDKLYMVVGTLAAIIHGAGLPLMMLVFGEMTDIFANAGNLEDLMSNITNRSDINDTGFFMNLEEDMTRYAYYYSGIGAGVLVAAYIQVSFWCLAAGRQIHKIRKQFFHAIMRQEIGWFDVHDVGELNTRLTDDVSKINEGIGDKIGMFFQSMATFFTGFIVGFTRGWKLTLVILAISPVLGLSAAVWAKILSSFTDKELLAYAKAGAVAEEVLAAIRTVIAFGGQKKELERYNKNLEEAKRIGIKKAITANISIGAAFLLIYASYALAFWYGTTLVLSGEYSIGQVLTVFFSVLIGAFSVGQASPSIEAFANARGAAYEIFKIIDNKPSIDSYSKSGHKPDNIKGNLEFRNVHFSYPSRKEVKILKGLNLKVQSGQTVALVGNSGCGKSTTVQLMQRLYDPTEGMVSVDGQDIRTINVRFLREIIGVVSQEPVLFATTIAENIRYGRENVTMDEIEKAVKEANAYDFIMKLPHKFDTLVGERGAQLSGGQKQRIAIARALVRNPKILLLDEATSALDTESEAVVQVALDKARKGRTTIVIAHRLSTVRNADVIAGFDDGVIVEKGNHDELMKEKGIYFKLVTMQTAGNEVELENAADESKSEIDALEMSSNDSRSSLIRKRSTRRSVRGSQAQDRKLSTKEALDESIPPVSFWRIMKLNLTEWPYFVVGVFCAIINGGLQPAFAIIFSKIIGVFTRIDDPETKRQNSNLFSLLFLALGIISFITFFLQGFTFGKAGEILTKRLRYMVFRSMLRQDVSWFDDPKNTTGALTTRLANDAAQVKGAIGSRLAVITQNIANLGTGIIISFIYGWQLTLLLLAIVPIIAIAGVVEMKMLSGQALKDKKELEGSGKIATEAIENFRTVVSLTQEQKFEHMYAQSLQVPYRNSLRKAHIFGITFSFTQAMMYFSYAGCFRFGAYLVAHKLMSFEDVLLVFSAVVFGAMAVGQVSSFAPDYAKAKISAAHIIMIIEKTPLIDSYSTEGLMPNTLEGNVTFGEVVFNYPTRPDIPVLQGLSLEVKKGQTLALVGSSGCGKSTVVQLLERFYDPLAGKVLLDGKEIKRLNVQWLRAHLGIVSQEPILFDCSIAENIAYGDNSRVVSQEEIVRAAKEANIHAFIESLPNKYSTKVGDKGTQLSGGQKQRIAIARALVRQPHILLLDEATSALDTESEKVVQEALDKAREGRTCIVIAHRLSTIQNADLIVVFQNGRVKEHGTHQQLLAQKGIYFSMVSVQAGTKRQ

Take `C[N+](C)(C)CC(O)CC(=O)[O-]` (centres unmarked) [Carnitine, carnitine]: at hOCTN2 [1], the “Direct Uptake Vmax” value is reported as 7.7 pmol/min/well. Further, at hOCTN2 [2], the “3H-carnitine uptake in OCTN2-expressing oocytes versus noninjected controls” value is given as “higher levels of ^3H-carnitine uptake than noninjected controls”. Besides, on hOCTN2 [3] (cells induced to express OCTN2, unlabeled carnitine as competitor), the “uptake of labeled carnitine with increasing unlabeled carnitine” value is “uptake of labeled carnitine decreased as the concentration of unlabeled carnitine increased”. On hOCTN2 [3] (inhibition of 3H-carnitine uptake, CHO-TREx-hOCTN2 cells induced to express hOCTN2), the concentration for half-maximal inhibition (IC50) is 6.3 µM.

As for `CC[C@]1(O)C[C@@H]2CN(CCc3c([nH]c4ccccc34)[C@@](C(=O)OC)(c3cc4c(cc3OC)N(C)[C@H]3[C@@](O)(C(=O)OC)[C@H](OC(C)=O)[C@]5(CC)C=CCN6CC[C@]43[C@@H]65)C2)C1` [^3H-vinblastine, vinblastine], on PgP (setting [5]), the “apical to basolateral transport” value is recorded as “strongly increased” and the “basolateral to apical transport” value is listed as “strongly decreased”. At PgP (concluded from transport with and without verapamil), the PgP substrate status result is “substrate of PgP”.

B1: hOCTN2 (Homo sapiens) (protein)
chain: T1 sequence (O76082 1-557)
notes: expressed in transfected cells; host or cells: CHO-TREx cells (CHO-TREx-OCTN2 inducible cell line)
On to B1, for which the Michaelis constant (Km) in data set [4] turned out to be 300 µM.

Values taken from patent US7704696B2, “Screening of compounds for OCTN2 transporter activity” (XenoPort, Inc., priority 2005, dated 2010).
